Laboratory results: US20220304945A1, “METHODS OF TREATING METABOLIC SYNDROME RELATED CONDITIONS USING RETINOIC ACID RECEPTOR AGONISTS” (Cornell University, priority 2014, published 2022)
“Also recorded” adds a separate entry of the source.

Columns and labels:
Type in all cases: in vivo, mouse
[1] = tested on: PPARα, CPT1-α, CPT2, ACAT1, FASN, SREBP1, ACC1, HSL, PLIN, ADIPOQ mRNA; experiment: Q-PCR of lipid metabolism genes in liver, pancreas and adipose tissue; conditions: Wt and Ob/Ob mice, pancreas, adipose
Protocol: RNA Isolation and cDNA Synthesis-Total RNA was isolated from whole pancreas and small intestine homogenates using RNeasy mini kits (Qiagen, Valencia, Calif.) and quantified using a Nano Drop 2000 spectrophotometer (Thermo Scientific, Wilmington, Del.). Total RNA (2 μg) was used to synthesize cDNA with random primers using a qScript cDNA synthesis kit (Quanta Biosciences, Gaithersburg, Md.).
Quantitative RT-PCR (Q-PCR)-Q-PCR was performed using SYBR Green PCR master mix on a Bio-Rad MyiQ2 Real Time PCR iCycler (Bio-Rad, Inc. Hercules, Calif.). Gene specific primers (Table 5) were used to amplify mRNA target genes, which were normalized to Hprt internal control genes. cDNA from 3-5 mice per experimental group was analyzed for relative mRNA fold changes, calculated using the Pfaffl method (Pfaffl M W, A new mathematical model for relative quantification in real-time RT-PCR, Nucleic Acids Res. 2001 May 1; 29(9):e45). Relative gene expression values are reported as mean±standard error of the mean (S.E.M) and P-values calculated using one-way analysis of variance followed by Bonferroni multiple comparison test post-hoc analysis.

[2] = tested on: 4-HNE, oxidative stress in the kidneys; experiment: 4-HNE staining of kidney, HF-fed mice; conditions: HF diet mice; vs high fat diet group
Text: (§1) Mice, diet, and drug treatment. WT male C57/BL6 male mice were maintained on either a standard laboratory chow-fed diet (CFD) with 13% kcal fat, (diet #5053, Lab Diet, Inc, St. Louis, Mo.) or a high fat, western style diet (HFD) with 60% kcals from fat, (diet #58126, Lab Diet, Inc., St. Louis, Mo.) for 4 months. One month after the start of the high fat diet treatment, the high fat diet group was further split into 2 groups for 3 months: i) high fat diet and the drinking water containing 1% DMSO; ii) high fat diet and the drinking water containing 1.5 mg/100 ml AC261066, a specific RARβ agonist. Then mice were sacrificed by cervical dislocation. Blood and various tissue samples were harvested.
(§2) 4-hydroxynonenal (4-HNE) staining. Paraffin-embedded sections (from two to four mice per group) were deparaffinized and rehydrated, and antigen retrieval was performed using an antigen unmasking solution (Vector Laboratories, H-3300). After quenching endogenous peroxidase with 3% H2O2, the tissue sections were blocked with the blocking reagent (from the M.O.M. kit from Vector Laboratories). Then, tissue sections were incubated with a 4-HNE antibody (1:400; mouse monoclonal antibody; Abcam, ab48506) overnight at 4° C. The sections were then incubated with secondary antibodies (1:200, anti-mouse IgG from the M.O.M kit). […]

[3] = tested on: hepatic stellate cells (HSCs); experiment: Hepatic stellate cell activation: α-SMA immunofluorescence of liver, HF-fed mice; conditions: HF diet mice 4 months, vs HF-vehicle
Text: as §1
(§3) Combined oil red O and Immunofluorescence. Staining. Fresh mouse liver samples were embedded in optimal cutting temperature (OCT) medium and immediately frozen to −70 centigrade. Cryosections were then fixed in 4% formaldehyde for 1 hr at room temp. Slides were then rinsed three times in deionized water (dH2O) for 30 s, followed by treatment with 0.5% Triton X-100 in PBS for 5 min. Sections were then washed three times with PBS for 5 min. Samples were with incubated 2% bovine serum albumin (BSA) for 30 min at room temperature to block for unspecific antibody binding. Following blocking, sections were washed three times in PBS and incubated with mouse monoclonal antibody against α-SMA (1:500) (Dako, Inc) for 24 h at 4° C. After 24 h sections were washed three times in PB and incubated with Alexa-Flour-488 anti-mouse secondary anti-body (1:500) (Invitrogen, Inc) for 30 min at room temperature. Sections were then washed three times in PBS and incubated with working strength oil-red O solution for 30 minutes at room temperature. Sections were then rinsed for 30 minutes under running tap water and cover-slipped with Vectashield hard mount plus DAPI (Vector Labs, Inc).

[4] = HPLC analysis of serum and liver retinoids, HF-fed mice; conditions: for liver retinyl palmitate and retinol compared to controls: HF diet mice vs control diet
Text: as §1
(§4) Analysis of serum and liver retinoids. The frozen liver tissue samples (˜100 mg) were homogenized in 500 μl cold phosphate-buffered saline (PBS). In addition, 100 μl serum was diluted in cold PBS to total volume of 500 μl. Retinyl acetate was added to each sample before the retinoid extraction for the calculation of extraction efficiency. The retinoids were extracted into 350 μl of organic solution (acetonitrile/butanol, 50:50, v/v) in the dark. The high performance liquid chromatography (HPLC) was performed using a Waters Millennium system (Waters). Each sample (100 μl of the 350 μl) was loaded onto an analytical 5-μm reverse phase C18 column (Vydac, Hesperia, Calif.) and eluted at a flow rate of 1.5 ml/min. Two mobile phase gradient systems were used. Retinoids were identified by HPLC based on two criteria: an exact match of the retention times of unknown peaks with those of authentic retinoid standards and identical UV light spectra (220-400 nm) of unknowns against spectra from authentic retinoid standards during HPLC by the use of a photodiode array detector. The amounts of retinoids were calculated from the areas under the peaks detected at the wave-length of 325 nm. The levels of retinol and retinyl esters were normalized to the tissue weight.
as §4, with “Millenium” for “Millennium”

[5] = tested on: 4-HNE, oxidative stress in the liver; experiment: 4-HNE staining of liver, HF-fed mice; conditions: HF diet mice; vs high fat diet group
Text: as §1, §2

HF-fed C57/BL6 mice = experiment: Hepatic steatosis: H and E and oil red O staining of liver, HF-fed mice; conditions: HF diet mice 4 months; vs HF-vehicle
Text: as §1
Hematoxylin and Eosin Staining. At sacrifice, fresh mouse liver samples were fixed in 4% formaldehyde solution for 24 hr and embedded in paraffin blocks. Liver paraffin sections were cut 5 microns thick and mounted on glass slides and stained with hematoxylin and eosin (H and E) using standard protocols.
as §3

| SMILES | tissue expression of genes involved in lipogenesis and mitochondrial oxidation of lipids [1] | 4-HNE level (oxidative stress, ROS) in kidneys [2] | activation of hepatic stellate cells (α-SMA positive staining in liver) [3] | activation of hepatic stellate cells (α-SMA positive staining in liver) ([3]; listed as AC261011) | retinyl palmitate in liver, higher than HF-vehicle treated mice ([4]; HF diet mice) [%] | vitamin A deficiency (VA depletion) in liver ([4]; HF diet mice) | liver retinyl palmitate and retinol compared to controls [4] | 4-HNE level (oxidative stress, ROS) in liver [5] | hepatic lipid accumulation (oil red O) (HF-fed C57/BL6 mice) | hepatic steatosis / hepatocyte lipid accumulation (H and E) (HF-fed C57/BL6 mice) | retinyl palmitate in liver, lower than HF-vehicle treated mice ([4]; HF diet mice) [%] |
| --- | --- | --- | --- | --- | --- | --- | --- | --- | --- | --- | --- |
| CCCCOCCOc1nc(-c2ccc(C(=O)O)c(F)c2)sc1C [AC261066] | alters | reduces oxidative stress; also recorded: lower | diminished; also recorded: prevent; also recorded: decreased intensity and regions of α-SMA positive staining | decreased | 55 | partially reverses | significantly lowered | reduces oxidative stress; also recorded: lower | marked diminished | diminished; also recorded: prevent; also recorded: marked decreased |  |
| O=C(O)c1ccc(-c2ccc3cc(O)c(C45CC6CC(CC(C6)C4)C5)cc3c2)cc1 [CD1530] |  |  | no evidence decreased |  |  |  | significantly lowered |  | not observed; also recorded: no evidence decreased | no decrease | ~48 |
